From US20250262247A1, “MICROGLIAL CELLS AS THERAPEUTIC TARGETS IN NEURODEVELOPMENTAL DISORDERS” (The Regents of the University of California, priority 2022, published 2025) come the findings set out here.

This experiment relates to MGL. Nature of the experiment: Phagocytosis assay with block of zymosan uptake. To be noted: 1 μM, 30 min prior to incubation with zymosan. In kind it is cell-based, human. As for the experimental part:
Phagocytosis Assay. Phagocytosis assay was performed according to the manufacturer's instructions with pHrodo™ Red Zymosan A BioParticles® (Life Technologies, Carlsbad, USA) conjugate for phagocytosis. Briefly, 20,000 MGL were plated on a 96-well tissue culture plate and incubated in M2 media [Neurobasal media supplemented with 2×Gem21 NeuroPlex, 1×NEAA, 1× Glutamax] containing fluorescently labeled zymosan particles (0.125 mg/ml) for 2 h at 37° C., 5% CO2. Fluorescence was measured with Tecan Infinite 200 PRO microplate reader (Life Sciences, Switzerland).
For experiments featuring block of zymosan uptake, cell monolayers were treated with 1 μM Cytochalasin D (Sigma-Aldrich) 30 min prior to incubation with zymosan.

`C=C1[C@@H](C)[C@H]2[C@H](Cc3ccccc3)NC(=O)[C@]23[C@H](OC(C)=O)/C=C/[C@@](C)(O)C(=O)[C@@H](C)C/C=C/[C@H]3[C@@H]1O` [Cytochalasin D]: the “Engulfment of zymosan particles” value is “reduced”.
